Source: ChEMBL document CHEMBL1129747, “Head group analogs of arachidonylethanolamide, the endogenous cannabinoid ligand” (J Med Chem, 1996)

Key:
Cannabinoid receptor 1 = Cannabinoid receptor 1 (Rattus norvegicus, UniProt P20272); assay: Displacement of [3H]CP-55940 from Cannabinoid receptor 1 of rat forebrain membranes; format: cell membranes, Membrane
Cannabinoid receptor 2 = Cannabinoid receptor 2 (Mus musculus, UniProt P47936); assay: Compound was evaluated for its binding affinity for mouse spleen Cannabinoid receptor 2
Cannabinoid receptor 2, sequence (P47936 whole entry): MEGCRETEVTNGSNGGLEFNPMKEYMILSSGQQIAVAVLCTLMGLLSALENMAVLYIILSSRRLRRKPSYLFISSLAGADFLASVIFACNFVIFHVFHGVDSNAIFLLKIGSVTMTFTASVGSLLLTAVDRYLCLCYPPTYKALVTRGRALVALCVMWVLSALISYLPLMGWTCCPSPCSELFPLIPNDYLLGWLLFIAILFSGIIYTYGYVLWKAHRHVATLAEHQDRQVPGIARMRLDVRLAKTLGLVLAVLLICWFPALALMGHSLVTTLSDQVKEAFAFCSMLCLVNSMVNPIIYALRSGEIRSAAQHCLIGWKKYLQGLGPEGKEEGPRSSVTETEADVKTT

Cannabinoid receptor 1, sequence (P20272 whole entry): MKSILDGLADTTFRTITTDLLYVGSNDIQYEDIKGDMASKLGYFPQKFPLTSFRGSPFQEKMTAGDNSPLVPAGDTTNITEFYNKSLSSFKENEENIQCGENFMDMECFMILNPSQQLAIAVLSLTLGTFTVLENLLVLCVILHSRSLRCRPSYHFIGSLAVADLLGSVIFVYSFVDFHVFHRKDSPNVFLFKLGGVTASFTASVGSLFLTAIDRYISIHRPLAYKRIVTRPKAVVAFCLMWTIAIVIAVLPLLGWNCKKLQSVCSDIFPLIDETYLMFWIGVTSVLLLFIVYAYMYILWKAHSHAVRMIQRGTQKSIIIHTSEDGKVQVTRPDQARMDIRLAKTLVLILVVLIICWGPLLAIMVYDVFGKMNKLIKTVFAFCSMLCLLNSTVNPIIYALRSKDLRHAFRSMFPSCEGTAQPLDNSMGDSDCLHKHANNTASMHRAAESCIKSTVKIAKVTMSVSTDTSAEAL

| SMILES | Ki (Cannabinoid receptor 1) [nM] | Ki (Cannabinoid receptor 2) [µM] |
| --- | --- | --- |
| CCCCC/C=C\C/C=C\C/C=C\C/C=C\CCCC(=O)Nc1ccccc1O | 1660 | 2.1 |
| CCCCC/C=C\C/C=C\C/C=C\C/C=C\CCCC(=O)N[C@H]1CCCC[C@@H]1O | > 3000 | – |
| CCCCC/C=C\C/C=C\C/C=C\C/C=C\CCCC(=O)NC(CO)CO | 363 | – |
| CCCCC/C=C\C/C=C\C/C=C\C/C=C\CCCC(=O)Nc1cccc(O)c1 | 1560 | 3.1 |
| CCCCC/C=C\C/C=C\C/C=C\C/C=C\CCCC(=S)NCCO | 1380 | 6.3 |
| CCCCC/C=C\C/C=C\C/C=C\C/C=C\CCCC(=O)NCC(O)CC (stereo not given) | 203 | – |
| CCCCC/C=C\C/C=C\C/C=C\C/C=C\CCCC(=O)Nc1ccc(O)cc1 | 1760 | 13 |
| CCCCC/C=C\C/C=C\C/C=C\C/C=C\CCCC(=O)NCc1ccc(O)cc1 | 217 | 11 |
| CCCCC/C=C\C/C=C\C/C=C\C/C=C\CCCC(=O)NCCO [ANANDAMIDE] | – | 1.93 |
| CCCCC/C=C\C/C=C\C/C=C\C/C=C\CCCC(=O)N[C@H](C)CO [METHANANDAMIDE] | – | 0.815 |
